Measured values published in ChEMBL document CHEMBL2396614, “Affinity-based screening of MDM2/MDMX-p53 interaction inhibitors by chemical array: identification of novel peptidic inhibitors” (Bioorg Med Chem Lett, 2013).
Residues, ends and D or L forms follow the SMILES beside them. *: point of attachment. Mts = Cc1cc(C)c(S(=O)(=O)*)c(C)c1; Npys = O=[N+]([O-])c1cccnc1S*; X1 = COc1ccc(COC(=O)*)cc1; Boc = CC(C)(C)OC(=O)*; OBn = c1ccc(CO*)cc1; X2 = C1CCCC(O*)CC1; NHNH2 = NN*

Key:
[1] = target: E3 ubiquitin-protein ligase Mdm2 (Homo sapiens, UniProt Q00987); experiment: Inhibition of MDM2 (unknown origin) binding to FAM-LTFEHYWAQLTS-NH2 after 30 mins by fluorescence polarization assay
E3 ubiquitin-protein ligase Mdm2, sequence (Q00987 whole entry): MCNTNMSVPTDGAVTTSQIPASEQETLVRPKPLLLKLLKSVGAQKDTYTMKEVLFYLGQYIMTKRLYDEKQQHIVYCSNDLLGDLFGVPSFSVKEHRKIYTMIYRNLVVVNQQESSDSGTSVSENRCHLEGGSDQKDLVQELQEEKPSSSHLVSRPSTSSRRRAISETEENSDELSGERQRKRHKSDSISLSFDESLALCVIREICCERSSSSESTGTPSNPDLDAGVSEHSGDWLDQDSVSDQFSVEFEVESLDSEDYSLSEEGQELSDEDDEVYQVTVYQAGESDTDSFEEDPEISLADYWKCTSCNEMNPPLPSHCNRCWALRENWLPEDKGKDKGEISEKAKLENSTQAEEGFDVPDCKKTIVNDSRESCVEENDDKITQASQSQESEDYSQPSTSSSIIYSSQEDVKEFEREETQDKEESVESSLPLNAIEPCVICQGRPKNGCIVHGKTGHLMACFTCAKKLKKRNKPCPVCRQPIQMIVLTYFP

Protein Mdm4 = target: T1, Protein Mdm4 (Homo sapiens, UniProt O15151); experiment: Inhibition of MDMX (unknown origin) binding to FAM-LTFEHYWAQLTS-NH2 after 30 mins by fluorescence polarization assay
T1 sequence (O15151 whole entry): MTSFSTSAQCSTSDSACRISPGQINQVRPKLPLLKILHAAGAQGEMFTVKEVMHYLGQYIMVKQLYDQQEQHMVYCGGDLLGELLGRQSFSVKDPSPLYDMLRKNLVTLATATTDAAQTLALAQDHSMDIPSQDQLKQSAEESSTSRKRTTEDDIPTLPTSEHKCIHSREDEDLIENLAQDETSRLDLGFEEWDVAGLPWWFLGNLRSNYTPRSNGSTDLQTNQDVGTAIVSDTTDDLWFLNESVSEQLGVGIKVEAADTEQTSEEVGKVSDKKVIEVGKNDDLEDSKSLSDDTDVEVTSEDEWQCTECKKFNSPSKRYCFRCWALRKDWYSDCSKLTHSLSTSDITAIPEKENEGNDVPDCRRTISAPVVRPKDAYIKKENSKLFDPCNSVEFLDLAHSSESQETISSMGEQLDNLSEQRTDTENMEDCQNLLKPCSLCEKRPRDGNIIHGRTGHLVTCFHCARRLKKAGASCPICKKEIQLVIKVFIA

A549 = experiment: Growth inhibition of human A549 cells after 72 hrs by MTS assay; format: functional, cell-based; conditions: A549, 72 h
[2] = Solubility of the compound in DMEM medium at > 30 uM; format: physicochemical

IC50 [1] | IC50 (Protein Mdm4) | EC50 (A549) | solubility [2] | Structure (SMILES)
22.2 µM | 42.1 µM | 13.7 µM | – | CC[C@H](C)[C@H](NC(=O)[C@H](Cc1ccccc1)NC(=O)[C@H](CSSc1ncccc1[N+](=O)[O-])NC(=O)OC(C)(C)C)C(=O)N[C@@H](CCCNC(=N)NS(=O)(=O)c1c(C)cc(C)cc1C)C(=O)OC (Boc-C(Npys)FIR(Mts)-OMe)
8.51 µM | 32.4 µM | > 30 µM | Insoluble | COc1ccc(COC(=O)N[C@H](C(=O)N[C@@H](CCC(C)=O)C(=O)N[C@@H](Cc2cn(S(=O)(=O)c3c(C)cc(C)cc3C)c3ccccc23)C(=O)N[C@@H](CC(C)C)C(=O)NN)C(C)C)cc1
21.3 µM | 52.5 µM | > 30 µM | Insoluble | COc1ccc(COC(=O)N[C@@H](C)C(=O)N[C@@H](CCC(=O)OCc2ccccc2)C(=O)N[C@@H](CC(C)C)C(=O)N[C@H](C(=O)N[C@@H](CC(=O)OC2CCCCCC2)C(=O)N[C@@H](C)C(=O)NN)C(C)C)cc1 (X1-AE(OBn)LVD(X2)A-NHNH2)
